Laboratory results taken from ChEMBL document CHEMBL5505963, “Novel berberine derivatives as p300 histone acetyltransferase inhibitors in combination treatment for breast cancer” (Eur J Med Chem, 2024).
Calls of active or inactive are those of the source. The rule behind the calls is not given here.

Key:
[1] = target: Histone acetyltransferase p300 (Homo sapiens, UniProt Q09472); test: Inhibition of p300 HAT (unknown origin) using 3H-acetyl-CoA as substrate assessed as H3 peptide acetylation preincubated with compound for 15 mins followed by substrate addition and measured after 30 mins by microbeta scintillation counter analysis
Histone acetyltransferase p300, sequence (Q09472 whole entry): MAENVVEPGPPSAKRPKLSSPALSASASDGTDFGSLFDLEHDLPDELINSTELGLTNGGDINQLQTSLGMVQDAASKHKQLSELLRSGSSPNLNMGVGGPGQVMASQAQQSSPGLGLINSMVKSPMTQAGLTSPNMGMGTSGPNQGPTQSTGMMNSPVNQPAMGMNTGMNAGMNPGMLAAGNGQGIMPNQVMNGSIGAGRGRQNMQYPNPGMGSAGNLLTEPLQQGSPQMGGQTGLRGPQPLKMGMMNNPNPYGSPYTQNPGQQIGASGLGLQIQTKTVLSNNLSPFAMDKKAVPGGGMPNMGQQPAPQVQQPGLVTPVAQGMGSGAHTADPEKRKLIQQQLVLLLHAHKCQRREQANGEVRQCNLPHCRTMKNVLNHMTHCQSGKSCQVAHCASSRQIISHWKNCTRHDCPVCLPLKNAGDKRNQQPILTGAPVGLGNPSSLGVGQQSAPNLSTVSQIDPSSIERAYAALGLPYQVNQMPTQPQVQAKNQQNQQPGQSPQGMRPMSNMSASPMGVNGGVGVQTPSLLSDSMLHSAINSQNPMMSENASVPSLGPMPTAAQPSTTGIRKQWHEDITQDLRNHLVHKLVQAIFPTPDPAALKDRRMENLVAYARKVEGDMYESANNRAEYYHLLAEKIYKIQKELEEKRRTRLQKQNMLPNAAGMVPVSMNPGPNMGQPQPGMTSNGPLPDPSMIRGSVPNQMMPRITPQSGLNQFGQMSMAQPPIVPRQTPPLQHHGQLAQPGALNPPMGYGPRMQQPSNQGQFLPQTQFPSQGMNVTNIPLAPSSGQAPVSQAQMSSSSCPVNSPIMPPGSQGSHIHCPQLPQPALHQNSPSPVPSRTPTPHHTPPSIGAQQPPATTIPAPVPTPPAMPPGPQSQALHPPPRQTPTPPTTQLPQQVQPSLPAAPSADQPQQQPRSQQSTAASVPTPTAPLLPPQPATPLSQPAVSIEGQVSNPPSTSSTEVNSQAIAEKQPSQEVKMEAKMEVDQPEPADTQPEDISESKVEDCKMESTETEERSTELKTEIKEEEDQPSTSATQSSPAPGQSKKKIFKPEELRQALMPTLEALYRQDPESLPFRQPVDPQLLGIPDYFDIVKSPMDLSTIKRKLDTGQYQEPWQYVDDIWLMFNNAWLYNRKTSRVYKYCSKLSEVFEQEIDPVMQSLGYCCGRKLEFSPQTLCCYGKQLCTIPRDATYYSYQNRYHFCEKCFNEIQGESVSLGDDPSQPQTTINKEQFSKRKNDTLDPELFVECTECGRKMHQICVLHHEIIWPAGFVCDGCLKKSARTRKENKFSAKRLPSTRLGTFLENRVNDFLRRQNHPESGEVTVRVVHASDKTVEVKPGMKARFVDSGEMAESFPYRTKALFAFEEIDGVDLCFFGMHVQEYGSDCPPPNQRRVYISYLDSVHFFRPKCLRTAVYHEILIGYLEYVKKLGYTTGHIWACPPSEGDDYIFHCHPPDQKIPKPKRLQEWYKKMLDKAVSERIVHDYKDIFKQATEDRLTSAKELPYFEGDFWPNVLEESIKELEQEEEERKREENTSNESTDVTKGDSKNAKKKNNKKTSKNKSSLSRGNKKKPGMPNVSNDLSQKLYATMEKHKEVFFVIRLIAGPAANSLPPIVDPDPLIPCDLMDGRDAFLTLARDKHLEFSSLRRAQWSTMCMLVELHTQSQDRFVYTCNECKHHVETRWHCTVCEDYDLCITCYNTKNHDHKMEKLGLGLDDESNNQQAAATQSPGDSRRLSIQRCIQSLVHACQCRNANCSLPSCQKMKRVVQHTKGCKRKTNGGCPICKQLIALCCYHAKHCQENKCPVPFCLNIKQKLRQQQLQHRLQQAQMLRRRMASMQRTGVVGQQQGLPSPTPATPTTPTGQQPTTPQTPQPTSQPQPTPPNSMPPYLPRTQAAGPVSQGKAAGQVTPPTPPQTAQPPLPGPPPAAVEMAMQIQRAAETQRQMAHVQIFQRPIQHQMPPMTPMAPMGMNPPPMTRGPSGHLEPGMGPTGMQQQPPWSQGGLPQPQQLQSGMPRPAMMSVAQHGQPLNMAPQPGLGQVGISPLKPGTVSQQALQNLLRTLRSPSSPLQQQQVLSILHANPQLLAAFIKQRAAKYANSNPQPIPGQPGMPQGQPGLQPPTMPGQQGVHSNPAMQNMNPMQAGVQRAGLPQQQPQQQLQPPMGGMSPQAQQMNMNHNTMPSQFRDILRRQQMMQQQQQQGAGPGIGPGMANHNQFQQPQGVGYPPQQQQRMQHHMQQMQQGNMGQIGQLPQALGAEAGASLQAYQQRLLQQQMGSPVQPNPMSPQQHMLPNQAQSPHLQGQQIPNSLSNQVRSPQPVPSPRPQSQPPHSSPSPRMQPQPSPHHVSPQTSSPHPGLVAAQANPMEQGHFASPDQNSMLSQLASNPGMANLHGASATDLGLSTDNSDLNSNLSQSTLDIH

MCF7 [2] = test: Antitumor activity against human MCF7 cells xenografted in BALB/c nude mouse assessed as tumor growth inhibition at 2 mg/kg, ip measured upto 14 days; assay type: functional; conditions: MCF7, 336 h, time <= 14 day, read-out: TGI
MCF7 [3] = test: Inhibition of cell migration in human MCF7 cells assessed as reduction in scratch measured after 24 hrs by microscopic analysis; assay type: functional
MCF7 [4] = test: Downregulation of survivin level in human MCF7 cells at 1 microg/ml incubated for 24 hrs by Western blot analysis; assay type: functional, cell-based; conditions: dose 1.0 µg/ml
MCF7 [5] = test: Inhibition of cell invasion in human MCF7 cells measured after 24 hrs by crystal violet staining based microscopic analysis; assay type: functional
MCF7 [6] = test: Induction of apoptosis in human MCF7 cells assessed as upregulation of cleaved PARP level at 1 microg/ml uM incubated for 24 hrs by Western blot analysis; assay type: functional, cell-based; conditions: dose 1.0 µg/ml
MCF7 [7] = test: Induction of apoptosis in human MCF7 cells assessed as upregulation of cleaved caspase 3 level at 1 microg/ml incubated for 24 hrs by Western blot analysis; assay type: functional, cell-based; conditions: dose 1.0 µg/ml
MCF7 [8] = test: Antiproliferative activity against human MCF7 cells assessed as inhibition of cell proliferation incubated for 48 hrs by MTT assay; assay type: functional, cell-based; conditions: MCF7, 48 h
PANC-1 = test: Antiproliferative activity against human PANC-1 cells assessed as inhibition of cell growth incubated for 48 hrs by MTT assay; assay type: functional, cell-based; conditions: PANC-1, 48 h
MCF7 [9] = test: Antiproliferative activity against human MCF7 cells assessed as inhibition of cell growth incubated for 48 hrs by MTT assay; assay type: functional, cell-based; conditions: MCF7, 48 h
LNCaP = test: Antiproliferative activity against human LNCaP cells assessed as inhibition of cell growth incubated for 48 hrs by MTT assay; assay type: functional, cell-based
MCF-10A = test: Antiproliferative activity against human MCF-10A cells assessed as inhibition of cell growth incubated for 48 hrs by MTT assay; assay type: functional, cell-based

SMILES | IC50 [1] | also measured
C1=CC2C=C3c4cc5c(cc4NCC[N+]3=CC2S1)OCO5 (configuration not stated) | 7 µM | –
COc1ccc2cc3[n+](cc2c1OC)CCSc1cc2c(cc1-3)OCO2 | 10.3 µM | –
COc1cc2cc3[n+](cc2cc1OC)CCCS(=O)(=O)c1cc2c(cc1-3)OCO2 | > 20 µM | –
COc1ccc2cc3[n+](cc2c1OC)CCc1c-3oc2ccccc12 | > 20 µM | –
COc1cccc2c1C(=O)c1c(O)c3c(c(O)c1C2=O)C[C@@](O)(C(=O)CO)C[C@@H]3O[C@H]1C[C@H](N)[C@H](O)[C@H](C)O1 [DOXORUBICIN] | – | inhibition in vivo at 2 mg/kg (MCF7 [2]): 64.3%; inhibition (INH) (MCF7 [3]): 62.43%; Activity (MCF7 [4]): Active; inhibition (MCF7 [5]): Active; Activity (MCF7 [6]): inactive; Activity (MCF7 [7]): inactive; IC50 (MCF7 [8]): 2.46 µM
COc1cc2cc3[n+](cc2cc1OC)CCOCCOc1cc2c(cc1-3)OCO2 | 5.87 µM | –
COc1cc2cc3[n+](cc2cc1OC)CCS(=O)(=O)c1cc2c(cc1-3)OCO2 | 11.3 µM | –
COc1cc2cc3[n+](cc2cc1OC)CCCSc1cc2c(cc1-3)OCO2 | 11.5 µM | –
COc1ccc2cc3[n+](cc2c1OC)CCCOc1cc2c(cc1-3)OCO2 | > 20 µM | –
C1=CC2C=C3c4cc5c(cc4OCC[N+]3=CC2S1)OCO5 (configuration not stated) | 9.31 µM | –
COc1ccc2cc3[n+](cc2c1OC)CCCNc1cc2c(cc1-3)OCO2 | > 20 µM | –
COc1ccc2cc3[n+](cc2c1OC)CCc1cc2c(cc1-3)OCO2 [BERBERINE CHLORIDE] | 8.91 µM | IC50 (PANC-1): > 50 µM; IC50 (MCF7 [9]): > 50 µM; IC50 (LNCaP): > 50 µM; IC50 (MCF-10A): > 50 µM
